{"source": "patent US10723778B2", "about": "“Variants of adrenomedullin and calcitonin gene-related peptide and methods of use” (The Board of Regents of the University of Oklahoma, priority 2015, dated 2020)", "key": {"[1]": {"target": "T1, AMY1 receptor extracellular domain complex; purified MBP-RAMP1 ECD-(GS)5-CTR ECD-H6 fusion protein (Homo sapiens, UniProt O60894+P30988)", "T1 construct": "purified MBP-RAMP1 ECD-(GS)5-CTR ECD-H6 fusion protein (200 nM); made in house; host or cells: HEK293T", "experiment": "AlphaLISA luminescent peptide binding assay, AMY1 receptor ECD complex", "settings": "displacement of Biotin-AC413 probe (100 nM), fusion protein 200 nM", "method": "A single representative experiment conducted with duplicate samples is shown. Error bars are S.E.M. The ability of the indicated peptides to displace a Biotin-AC413 probe (100 nM) from purified MBP-RAMP1 ECD-(GS)5-CTR ECD-H6 fusion protein (200 nM) was assessed by AlphaLISA® luminescent peptide binding assay (Perkin-Elmer, Waltham, Mass.) as described in Lee et al. (J Biol. Chem (2016) 291:8686-8700). The reactions were incubated for 5 hours at room temperature to reach equilibrium, and the luminescence was measured in white 384-well plates using a BMG LABTECH's POLARstar® Omega plate reader (Ortenberg, Germany). The reaction buffer was 50 mM MOPS, pH 7.4, 150 mM NaCl, 7 mg/ml fatty acid-free BSA and the streptavidin-coated donor beads and MBP-antibody coated acceptor beads were at 15 μg/ml each. IC50 values were calculated using nonlinear regression fitting of the competition curves to a three-parameter, one-site competitive binding equation in GraphPad Prism 5.0 (GraphPad Software, San Diego Calif.)."}, "[2]": {"target": "T2, full-length CGRP (RAMP1:CLR) receptor transiently expressed in COS-7 cells (Homo sapiens, UniProt O60894+Q16602)", "T2 construct": "Plasmids for expression of tagged full-length CLR and RAMP1 or RAMP2 receptors in mammalian cells were previously described; expressed in transfected cells; host or cells: COS-7", "experiment": "Antagonism of CGRP-activated cAMP signaling in COS-7 cells", "format": "cell-based", "method": "(§1) Cell-based assays. Transfection of COS-7 cells, cAMP assay, ELISA for cell surface expression, and data analysis were as previously described (Barwell et al., Peptides (2010) 31:170-176; Watkins et al., Br J Pharmacol (2014) 171:772-788).\n(§2) A single representative experiment conducted with duplicate samples is shown. Error bars are S.E.M. The experiments were performed as described in Lee et al. (J Biol. Chem (2016) 291:8686-8700). […] (B) depicts antagonism of AM-activated cAMP signaling at the AM1 receptor.\n(§3) Forty-eight hours after transfection, the cells were pre-incubated for 30 minutes in the absence or presence of 500 nM AM(37-52)NH2 [S45W/K46L/Q50W/Y52F], and then stimulated for 15 minutes with increasing concentrations of agonist peptide in the absence or presence of 500 nM antagonist. The cells were lysed, and cAMP was quantitated using a LANCE TR-FRET cAMP kit (Perkin-Elmer Waltham, Mass.)."}, "[3]": {"target": "T3, full-length AM1 (RAMP2:CLR) receptor transiently expressed in COS-7 cells (Homo sapiens, UniProt O60895+Q16602)", "T3 construct": "Plasmids for expression of tagged full-length CLR and RAMP1 or RAMP2 receptors in mammalian cells were previously described; expressed in transfected cells; host or cells: COS-7", "experiment": "Antagonism of AM-activated cAMP signaling in COS-7 cells", "format": "cell-based", "settings": "500 nM antagonist", "method": "as §1, §2, §3"}, "[4]": {"target": "T4, RAMP1-CLR ECD (CGRP); purified MBP-RAMP1 ECD-(GS)5-CLR ECD-H6 fusion protein (Homo sapiens, UniProt O60894+Q16602)", "T4 construct": "MBP-hRAMP1.24-111-(Gly-Ser)5-hCLR.29-144-H6; made in house; host or cells: E. coli", "experiment": "Fluorescence polarization (FP) peptide binding competition assay, CGRP receptor ECD complex", "settings": "for Receptor Selectivity, fold for CGRP: CGRP (RAMP1-CLR ECD) over AM1 (RAMP2-CLR ECD); for Receptor Selectivity, fold for CGRP / Receptor Selectivity (in words): FP assay; for Ki: RAMP1-CLR ECD (CGRP) KI (nM), FP competition, FITC-AM W/W probe 7 nM, fusion protein 15 nM; for Receptor Selectivity (in words): CGRP vs AM1 receptor ECD complexes", "method": "Fluorescence polarization peptide binding assay. […] The reactions (50 μL) were incubated for 2 hours at room temperature to reach equilibrium, and the anisotropy was measured in black half-area 96-well plates using a BMG LABTECH's POLARstar® Omega plate reader (Ortenberg, Germany). The reaction buffer was 50 mM HEPES, pH 7.5, 150 mM NaCl, 0.5 mg/ml fatty acid-free BSA, 0.5 mM EDTA, 0.5 mM maltose. Ki values were calculated using nonlinear regression fitting of the competition curves to the exact analytical equations of Roehrl et al. (Biochemistry (2004) 43:16056-66) using GraphPad Prism 5.0 (GraphPad Software, San Diego Calif.).\n(§4) The ability of the indicated peptides to displace a FITC-Ahx-AM(37-52)NH2 [S45W, Q50W] probe (7 nM) from purified MBP-RAMP1 ECD-(GS)5-CLR ECD-H6 fusion protein (15 nM) was assessed by fluorescence polarization (anisotropy). The reactions were incubated for 2 hours at room temperature to reach equilibrium, and the anisotropy was measured in black half-area 96-well plates using a BMG LABTECH's POLARstar® Omega plate reader (Ortenberg, Germany). The reaction buffer was 50 mM HEPES, pH 7.5, 150 mM NaCl, 0.5 mg/ml fatty acid-free BSA, 0.5 mM EDTA, 0.5 mM maltose. KI values were calculated using nonlinear regression fitting of the competition curves to the exact analytical equations of Roehrl et al. (Biochemistry (2004) 43:16056-66) using GraphPad Prism 5.0 (GraphPad Software, San Diego Calif.).\nas §4, with “Single representative experiments conducted with duplicate samples are shown. Error bars are S.E.M. The ability” for “The ability”, “displace a FITC-Ahx-AM(37-52)NH2[S45W, Q50W] probe” for “displace a FITC-Ahx-AM(37-52)NH2 [S45W, Q50W] probe”\nA fluorescence polarization/anisotropy (FP) peptide-binding assay was developed using N-terminally FITC-labeled AM(37-52) S45W/Q50W as the probe, hereafter “FITC-AM W/W.” The probe was custom synthesized and HPLC-purified by RS Synthesis. The large size difference between the MBP-RAMP ECD-CLR ECD fusion proteins (˜65 kDa) and the probe (˜2.5 kDa) ensures a significant anisotropy difference between bound and free states of the probe. […] Kd values for the probe at each of the tethered ECD fusion proteins were determined in equilibrium saturation binding experiments (data not shown), and KI values were determined for unlabeled peptides in equilibrium competition experiments (Table 1; FIGS. 2-5). The data were analyzed according to exact analytical equations using non-linear regression curve fitting in GraphPad Prism 5.0 (GraphPad Software) via user-defined equations."}, "[5]": {"target": "T5, membranes of SK-N-MC cells, which express the CGRP receptor (Homo sapiens, UniProt O60894+Q16602)", "T5 construct": "membranes of SK-N-MC cells, which express the CGRP receptor; host or cells: SK-N-MC cell membranes (endogenous receptor)", "settings": "read-out: IC50 reported for binding to membranes of SK-N-MC cells; cited from earlier work"}, "RAMP2-CLR ECD": {"target": "T6, RAMP2-CLR ECD (Homo sapiens, UniProt O60895+Q16602, L106R)", "T6 construct": "MBP-hRAMP2.55-140 [L106R]-(Gly-Ser-Ala)3-hCLR.29-144-H6; made in house; host or cells: E. coli", "experiment": "AlphaLISA/AlphaScreen competition peptide binding assay, AM1 receptor ECD complex", "method": "Protein production and characterization and peptides. Plasmid construction, mutagenesis, protein expression, purification, and the AlphaScreen® peptide binding assay (Perkin-Elmer, Waltham, Mass.) were performed as previously described with minor modifications to the AlphaScreen® assay (Hill and Pioszak, Protein expression and purification (2013) 88:107-113; and Moad and Pioszak, Protein Sci. (2013) 22:1775-85). Synthetic peptides were from RS Synthesis (Louisville, Ky.), Bachem (Bubendorf, Switzerland), or were synthesized in-house. […]\nFIG. 1 depicts in (B) binding of an AM C-terminal peptide, AM(37-52)NH2, and the two variant AM C-terminal peptides to purified AM1 receptor extracellular domain complex (CLR:RAMP2). The ability of the indicated peptides to displace a Biotin-CGRP probe (50 nM) from purified MBP-RAMP1 ECD-(GS)5-CTR ECD-H6 fusion protein (5 nM) or a Biotin-AM probe (25 nM) from purified MBP-RAMP2 ECD [L106R]-(GS)5-[…] ECD-H6 fusion protein (5 nM) was assessed by AlphaLISA® luminescent peptide binding assay (Perkin-Elmer, Waltham, Mass.). […] The reactions were incubated for 5 hours at room temperature to reach equilibrium, and the luminescence was measured in white 384-well plates using a BMG LABTECH's POLARstar Omega plate reader (Ortenberg, Germany). […]"}}, "note": "Where no end group is shown, it is not given here.", "data": [{"compound": "DKDNVAPRWLISPWGF-NH2 [S45W/K46L/Q50W/Y52F]", "values": [{"measurement": "IC50", "setting": "[1]", "value": 16000, "unit": "nM"}, {"measurement": "Kb", "setting": "[2]", "value": 10.5, "unit": "nM"}, {"measurement": "pA2, antagonism of CGRP-activated cAMP signaling at the CGRP receptor", "setting": "[2]; 500 nM antagonist, COS-7 cells, Gaddum/Schild EC50 shift, slopes constrained to 1", "value": "~8"}, {"measurement": "affinity for the intact CGRP receptor suggested by pA2", "setting": "[2]; COS-7 cells", "value": "~10", "unit": "nM"}, {"measurement": "antagonism of the AM1 receptor (cAMP)", "setting": "[3]", "value": "did not antagonize the AM1 receptor"}, {"measurement": "Receptor Selectivity, fold for CGRP", "setting": "[4]", "value": "2131-fold for CGRP"}, {"measurement": "Receptor Selectivity, fold for CGRP", "setting": "[4]; listed as AM(37-52)NH2 [S45W/K46L/Q50W/Y52F]", "value": "> 2000", "unit": "fold"}, {"measurement": "Ki", "setting": "[4]", "value": 1.91, "unit": "nM"}]}, {"compound": "CC(C)[C@H](NC(=O)[C@H](CC(=O)O)NC(=O)[C@@H](NC(=O)[C@@H]1CCCN1C(=O)[C@@H](NC(=O)[C@@H](N)Cc1ccccc1)C(C)C)[C@@H](C)O)C(=O)NCC(=O)N1CCC[C@H]1C(=O)N[C@@H](Cc1ccccc1)C(=O)N[C@@H](C)C(=O)N[C@@H](Cc1ccccc1)C(N)=O", "note": "[CGRPmut [N31D/S34P/K35F]]", "values": [{"measurement": "IC50", "setting": "[5]", "value": 29, "unit": "nM"}]}, {"compound": "DKDNVAPRSKISPWGY-NH2 [Peptide Q50W]", "values": [{"measurement": "Receptor Selectivity (in words)", "setting": "[4]", "value": "Non-selective"}, {"measurement": "Ki", "setting": "[4]", "value": 501, "unit": "nM"}, {"measurement": "fold increased affinity for RAMP2-CLR ECD", "setting": "RAMP2-CLR ECD; competition assays, relative to AM(37-52)NH2", "value": "~100", "unit": "fold"}]}, {"compound": "DKDNVAPRSKISPQGY-NH2 [WT, reference compound]", "values": [{"measurement": "Receptor Selectivity (in words)", "setting": "[4]", "value": "AM1 over CGRP"}, {"measurement": "Ki", "setting": "[4]", "value": "> 100000", "unit": "nM"}, {"measurement": "IC50", "setting": "RAMP2-CLR ECD; read-out: IC50 in AlphaLISA or AlphaScreen competition assays, RAMP2-CLR ECD", "value": "5000 to 15000", "unit": "nM"}]}]}
